Laboratory results taken from patent publication US7592358B2 (Boehringer Ingelheim International GmbH, priority 2004, dated 2009).

Molecular target: T1, hMCH-1R (Homo sapiens, UniProt Q99705)
T1 construct: expressed in transfected cells; host or cells: CHO/Galpha16 cells
Assay: MCH-1 receptor binding test
Details: ^125I-MCH binding to membranes from CHO/Galpha16 cells stably transfected with human hMCH-1R
Description: Membranes from CHO/Galpha16 cells stably transfected with human hMCH-1R are resuspended using a syringe (needle 0.6×25 mm) and diluted in test buffer (50 mM HEPES, 10 mM MgCl2, 2 mM EGTA, pH 7.00; 0.1% bovine serum albumin (protease-free), 0.021% bacitracin, 1 μg/mL aprotinin, 1 μg/mL leupeptin and 1 μM phosphoramidone) to a concentration of 5 to 15 μg/mL. […] After the incubation the reaction is filtered using a cell harvester through 0.5% PEI treated fiberglass filters (GF/B, Unifilter Packard). The membrane-bound radioactivity retained on the filter is then determined after the addition of scintillator substance (Packard Microscint 20) in a measuring device (TopCount of Packard). […] The analysis of the concentration binding curve is carried out on the assumption of one receptor binding site.

T1 sequence (Q99705 whole entry): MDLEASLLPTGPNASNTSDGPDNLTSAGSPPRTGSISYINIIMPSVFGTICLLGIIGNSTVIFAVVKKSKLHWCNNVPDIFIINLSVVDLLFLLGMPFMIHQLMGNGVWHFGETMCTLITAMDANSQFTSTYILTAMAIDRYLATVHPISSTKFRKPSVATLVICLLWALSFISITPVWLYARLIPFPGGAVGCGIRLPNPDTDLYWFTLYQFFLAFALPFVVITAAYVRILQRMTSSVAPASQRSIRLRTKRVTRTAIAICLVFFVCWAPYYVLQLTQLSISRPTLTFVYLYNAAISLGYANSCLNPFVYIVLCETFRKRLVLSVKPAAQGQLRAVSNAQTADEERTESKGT

Row | IC50 | Compound
1 | 6.2 nM | Cc1cc(C#Cc2ccc(-c3ccc(Cl)cc3)cn2)ccc1OCCN(C1CCCCC1)C1CCCC1 [Example 1.9, (2-{4-[5-(4-chlorophenyl)pyridin-2-ylethynyl]-2-methylphenoxy}ethyl)cyclohexylcyclopentylamine]
2 | 31 nM | CC1(O)CCN(Cc2cc3cc(C#Cc4ccc(-c5ccc(Cl)cc5)cn4)ccc3s2)CC1 [Example 22.3, 1-{5-[5-(4-chlorophenyl)pyridin-2-ylethynyl]benzo[b]thiophen-2-ylmethyl}-4-methylpiperidin-4-ol]
